Measured values taken from publication PMC6451005, “PCC0208027, a novel tyrosine kinase inhibitor, inhibits tumor growth of NSCLC by targeting EGFR and HER2 aberrations” (Scientific Reports, 2019).
Read-outs that look alike come from different tables or passages of the source. Marks after values point to notes of the source that are not given here.

Key:
HCC827 xenograft = assay: Nude mouse xenograft model; details: for number of p-EGFR and Ki67 positive cells in tumor tissues: HCC827 xenograft model, IHC, vs control group
Protocol: (§4) HCC827, NCI-H1975, and Calu-3 cells were resuspended in serum-free culture medium and mixed in a 1:1 ratio with Matrigel (BD Biosciences, USA) before subcutaneous injection at the right scapula of each animal (4 × 10^6 cells/mouse). The mice were randomized into groups when the average tumor volume reached 100–200 mm^3. […] The inhibition rate (IR) of tumor growth was calculated using the following equation: IR (%) = (A − B)/A × 100, where A and B are the mean tumor weights of the vehicle control and treatment groups, respectively.

HCC827 cells [1] = assay: Western blot assay; assay type: cell-based, Human; details: 24 h, Western blotting
Protocol: (§1) The BCA reagent kit (Beyotime Biotechnology) was used to measure protein content. The cell extracts (50 μg protein) were loaded onto a 4–20% ExpressPlus™ PAGE pre-cast gel (GenScript, China) for electrophoresis before transferring to a PVDF membrane. The membranes were blocked with 5% skimmed milk (prepared using Tris-buffered saline containing 0.05% Tween-20) before incubation with primary antibodies at 4 °C overnight. The membranes were then incubated with HRP-conjugated secondary antibodies at room temperature. The Alphaview SA system and software (version 3.4.0, ProteinSimple, USA) was used for quantitative analysis of the optical density of the bands.

NCI-H1975 xenograft = assay: Nude mouse xenograft model; details: for Body weight (g) Begin / IR (%) inhibition rate of tumor growth (tumor weight) / Body weight (g) End: NCI-H1975 xenograft; for IR (%) inhibition rate of tumor growth (tumor weight): 15 days
Protocol: as §4

A549 cells = assay: Cell growth inhibition assay (MTT); assay type: cell-based, Human; details: Homo sapiens, read-out: IC50 cell viability
Protocol: (§2) Human NSCLC cells NCI-H1975, HCC827, Calu-3 and A549were obtained from the Cell Culture Center of the Institute of Basic Medical Sciences, Chinese Academy of Medical Sciences. NCI-H1781 cell line was purchased from Cobioer Biosciences Co., Ltd. With the exception of Calu-3, all cell lines were cultured in RPMI-1640 medium (Gibco, USA) supplemented with 10% fetal bovine serum (FBS) (Gibco, USA). Calu-3 was maintained in Minimum Essential Medium (MEM) supplemented with 10% FBS (Gibco, USA), 5% 100 mM Sodium Pyruvate (Gibco, USA), and 5% Non-Essential Amino Acids Solution (NEAA; Gibco, USA). All cells were incubated at 37 °C with 5% CO2 in air.
(§3) According to the previous report, 5 × 10^3 cells/100 μL were seeded in culture medium in every well in a 96-well plate for 24 hours. […] After 72 h of treatment, MTT (Beyotime Biotechnology, China) was added at a final concentration of […] and incubated for 3 hours. Following that, DMSO was used to dissolve the formazan product and the Molecular Devices SpectraMax M5 microplate reader (Molecular Devices, USA) was used to measure absorbance at 570 nm and IC50 was calculated.

Calu-3 cells = assay: Cell growth inhibition assay (MTT); assay type: cell-based; details: Homo sapiens, read-out: IC50 cell viability
Protocol: as §2, §3

NCI-H1975 cells [2] = assay: Cell growth inhibition assay (MTT); assay type: cell-based; details: Homo sapiens, read-out: IC50 cell viability
Protocol: as §2, §3

NCI-H1781 cells = assay: Cell growth inhibition assay (MTT); assay type: cell-based; details: Homo sapiens, read-out: IC50 cell viability
Protocol: as §2, §3

NCI-H1975 cells [3] = assay: Western blot assay; assay type: cell-based, Human; details: 24 h, Western blotting
Protocol: as §1

HCC827 cells [4] = assay: Cell growth inhibition assay (MTT); assay type: cell-based; details: Homo sapiens, read-out: IC50 cell viability
Protocol: Human NSCLC cells NCI-H1975, HCC827, Calu-3 and A549were obtained from the Cell Culture Center of the Institute of Basic Medical Sciences, Chinese Academy of Medical Sciences. […] Calu-3 was maintained in Minimum Essential Medium (MEM) supplemented with 10% FBS (Gibco, USA), 5% 100 mM Sodium Pyruvate (Gibco, USA), and 5% Non-Essential Amino Acids Solution (NEAA; Gibco, USA). All cells were incubated at 37 °C with 5% CO2 in air.
According to the previous report[29], 5 × 10^3 cells/100 μL were seeded in culture medium in every well in a 96-well plate for 24 hours. […] After 72 h of treatment, MTT (Beyotime Biotechnology, China) was added at a final concentration of 5 mg/ml and incubated for 3 hours. Following that, DMSO was used to dissolve the formazan product and the Molecular Devices SpectraMax M5 microplate reader (Molecular Devices, USA) was used to measure absorbance at 570 nm and IC50 was calculated.

Calu-3 xenograft = assay: Nude mouse xenograft model; details: for Body weight (g) Begin / IR (%) inhibition rate of tumor growth (tumor weight) / Body weight (g) End: Calu-3 xenograft; for IR (%) inhibition rate of tumor growth (tumor weight): 15 days
Protocol: as §4

Her4 Wild Type = biological target: T1, Her4 Wild Type (Homo sapiens, UniProt Q15303); assay: In vitro kinase assay; assay type: biochemical; details: WT; n = 2
T1 construct: purchased Invitrogen (Shanghai) Co., Ltd

Her2 Wild Type = biological target: T2, Her2 Wild Type (Homo sapiens, UniProt P04626); assay: In vitro kinase assay; assay type: biochemical; details: WT; n = 2
T2 construct: purchased Invitrogen (Shanghai) Co., Ltd
T2 sequence (P04626 23-1255): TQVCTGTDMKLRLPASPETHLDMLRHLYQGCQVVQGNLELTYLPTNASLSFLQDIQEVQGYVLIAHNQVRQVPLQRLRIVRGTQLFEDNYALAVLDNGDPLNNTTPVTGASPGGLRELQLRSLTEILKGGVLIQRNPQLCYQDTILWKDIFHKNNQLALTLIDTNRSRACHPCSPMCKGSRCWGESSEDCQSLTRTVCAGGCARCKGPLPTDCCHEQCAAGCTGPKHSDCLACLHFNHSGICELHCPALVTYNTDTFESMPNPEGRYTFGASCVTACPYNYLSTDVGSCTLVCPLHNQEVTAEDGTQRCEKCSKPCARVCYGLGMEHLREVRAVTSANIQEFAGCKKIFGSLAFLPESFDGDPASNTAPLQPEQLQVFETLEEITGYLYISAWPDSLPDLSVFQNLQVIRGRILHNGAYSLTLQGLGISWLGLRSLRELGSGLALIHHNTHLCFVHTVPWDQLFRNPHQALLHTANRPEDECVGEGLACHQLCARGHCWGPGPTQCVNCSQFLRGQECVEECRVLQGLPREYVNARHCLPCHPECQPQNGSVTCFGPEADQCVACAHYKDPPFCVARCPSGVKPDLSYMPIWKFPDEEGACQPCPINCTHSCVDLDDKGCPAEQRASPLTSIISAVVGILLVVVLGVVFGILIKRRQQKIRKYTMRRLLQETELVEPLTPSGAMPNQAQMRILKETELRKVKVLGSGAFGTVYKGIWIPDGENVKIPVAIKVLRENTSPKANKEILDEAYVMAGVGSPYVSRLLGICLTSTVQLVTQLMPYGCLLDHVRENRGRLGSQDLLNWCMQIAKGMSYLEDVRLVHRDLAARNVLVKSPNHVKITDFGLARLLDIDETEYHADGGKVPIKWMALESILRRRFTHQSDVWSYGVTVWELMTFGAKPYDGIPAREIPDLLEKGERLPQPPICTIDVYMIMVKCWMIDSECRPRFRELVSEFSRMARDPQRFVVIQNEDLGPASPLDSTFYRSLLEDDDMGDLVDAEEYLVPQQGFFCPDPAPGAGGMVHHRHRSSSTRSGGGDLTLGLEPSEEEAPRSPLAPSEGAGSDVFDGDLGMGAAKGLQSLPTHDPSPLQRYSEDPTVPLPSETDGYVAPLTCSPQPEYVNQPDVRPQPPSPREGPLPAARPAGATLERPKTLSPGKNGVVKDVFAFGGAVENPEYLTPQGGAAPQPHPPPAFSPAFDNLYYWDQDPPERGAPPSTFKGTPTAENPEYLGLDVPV

T1 sequence (Q15303 26-1308): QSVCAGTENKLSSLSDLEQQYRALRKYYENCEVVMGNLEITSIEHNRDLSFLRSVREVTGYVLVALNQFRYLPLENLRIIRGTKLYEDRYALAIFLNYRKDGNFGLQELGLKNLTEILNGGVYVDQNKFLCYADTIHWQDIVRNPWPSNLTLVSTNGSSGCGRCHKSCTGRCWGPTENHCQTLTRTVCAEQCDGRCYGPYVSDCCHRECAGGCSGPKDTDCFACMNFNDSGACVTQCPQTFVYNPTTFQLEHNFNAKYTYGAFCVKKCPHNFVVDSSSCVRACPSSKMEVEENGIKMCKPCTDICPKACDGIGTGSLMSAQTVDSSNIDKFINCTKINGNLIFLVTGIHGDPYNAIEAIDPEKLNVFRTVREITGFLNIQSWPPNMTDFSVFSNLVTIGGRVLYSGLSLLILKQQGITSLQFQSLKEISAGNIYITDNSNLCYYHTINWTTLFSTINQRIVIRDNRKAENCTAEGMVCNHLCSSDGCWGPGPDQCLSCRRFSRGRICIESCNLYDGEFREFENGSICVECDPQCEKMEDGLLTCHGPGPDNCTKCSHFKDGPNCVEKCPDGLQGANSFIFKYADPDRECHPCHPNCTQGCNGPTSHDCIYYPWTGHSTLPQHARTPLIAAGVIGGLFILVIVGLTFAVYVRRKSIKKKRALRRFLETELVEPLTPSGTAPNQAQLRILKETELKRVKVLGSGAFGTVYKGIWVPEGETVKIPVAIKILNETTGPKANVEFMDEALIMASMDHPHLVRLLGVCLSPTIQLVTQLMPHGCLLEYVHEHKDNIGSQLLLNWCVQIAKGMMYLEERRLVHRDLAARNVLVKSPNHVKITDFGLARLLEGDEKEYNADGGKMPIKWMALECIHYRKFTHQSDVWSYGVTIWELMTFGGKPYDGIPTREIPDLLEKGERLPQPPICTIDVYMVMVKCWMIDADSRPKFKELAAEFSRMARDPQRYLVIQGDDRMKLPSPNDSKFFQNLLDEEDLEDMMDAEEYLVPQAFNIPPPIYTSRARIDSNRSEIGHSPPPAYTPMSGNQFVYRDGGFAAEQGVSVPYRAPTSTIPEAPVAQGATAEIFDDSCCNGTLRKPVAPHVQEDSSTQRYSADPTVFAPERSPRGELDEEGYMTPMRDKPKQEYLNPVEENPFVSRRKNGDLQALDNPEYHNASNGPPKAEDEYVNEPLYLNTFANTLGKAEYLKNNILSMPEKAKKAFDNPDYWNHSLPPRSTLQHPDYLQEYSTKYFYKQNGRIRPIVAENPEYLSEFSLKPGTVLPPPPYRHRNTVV

## C#Cc1cccc(Nc2ncnc3cc(OCCOC)c(OCCOC)cc23)c1 [Erlotinib]
HCC827 xenograft
  number of p-EGFR and Ki67 positive cells in tumor tissues: strongly decreased
HCC827 xenograft; HCC827 xenograft models
  decrease of body weight of animals: more than 20%
HCC827 xenograft; HCC827 xenograft, 100 mg/kg/day group
  Body weight (g) Begin: 17.65 ± 0.95 g
HCC827 xenograft; HCC827 xenograft, 100 mg/kg/day oral
  Body weight (g) End: 13.82 ± 0.75 g
HCC827 cells [1]
  Phosphorylation of EGFR and its downstream AKT and ERK: inhibited
NCI-H1975 xenograft; NCI-H1975 xenograft models, vs. control group
  tumor growth (in words): did not inhibit tumor growth
NCI-H1975 xenograft; 100 mg/kg/day group
  Body weight (g) Begin: 16.63 ± 1.02 g
NCI-H1975 xenograft; 100 mg/kg/day oral
  IR (%) inhibition rate of tumor growth (tumor weight): 29.78%
  Body weight (g) End: 14.54 ± 1.10 g
A549 cells; A549, 72 h
  IC50: > 1000 nM
Calu-3 cells; Calu-3, 72 h
  IC50: > 1000 nM
NCI-H1975 cells [2]; NCI-H1975, 72 h
  IC50: > 1000 nM
NCI-H1781 cells; NCI-H1781, 72 h
  IC50: > 1000 nM

## C=CC(=O)Nc1cc(Nc2nccc(-c3cn(C)c4ccccc34)n2)c(OC)cc1N(C)CCN(C)C [Osimertinib]
HCC827 xenograft
  number of p-EGFR and Ki67 positive cells in tumor tissues: strongly decreased
HCC827 xenograft; HCC827 xenograft, 2.5 mg/kg/day group
  Body weight (g) Begin: 17.57 ± 1.03 g
HCC827 xenograft; HCC827 xenograft, 2.5 mg/kg/day oral
  Body weight (g) End: 19.13 ± 0.78 g
HCC827 xenograft; mouse, in vivo, po, 2.5 mg/kg/day
  IR (%) inhibition rate of tumor growth (tumor weight): 91.19^*** %
NCI-H1975 cells [3]
  EGFR signaling: inhibited
HCC827 cells [1]
  Phosphorylation of EGFR and its downstream AKT and ERK: inhibited
HCC827 cells [4]; HCC827, 72 h
  IC50: 1.09 ± 0.22 nM
NCI-H1975 xenograft; NCI-H1975 xenograft model, IHC
  number of p-EGFR and Ki67 positive cells in tumor tissues: strongly decreased
NCI-H1975 xenograft; 10 mg/kg/day group
  Body weight (g) Begin: 16.55 ± 0.82 g
NCI-H1975 xenograft; 10 mg/kg/day oral
  IR (%) inhibition rate of tumor growth (tumor weight): 98.60^*** %
  Body weight (g) End: 16.23 ± 1.31 g
Calu-3 xenograft; Calu-3 xenograft models, vs. control group
  tumor growth (in words): did not show any significant inhibitory activity
Calu-3 xenograft; 5 mg/kg/day group
  Body weight (g) Begin: 17.42 ± 0.82 g
Calu-3 xenograft; 5 mg/kg/day oral
  IR (%) inhibition rate of tumor growth (tumor weight): 20.21%
  Body weight (g) End: 18.24 ± 0.78 g
A549 cells; A549, 72 h
  IC50: > 1000 nM
Calu-3 cells; Calu-3, 72 h
  IC50: […]
NCI-H1975 cells [2]; NCI-H1975, 72 h
  IC50: […]
NCI-H1781 cells; NCI-H1781, 72 h
  IC50: 842 ± 34 nM

## C=CC(=O)N1CCC(Oc2cc3c(Nc4ccc(Cl)c(Cl)c4F)ncnc3cc2OC)CC1 [Poziotinib]
HCC827 xenograft; HCC827 xenograft, 1 mg/kg/day group
  Body weight (g) Begin: 17.55 ± 0.96 g
HCC827 xenograft; HCC827 xenograft, 1 mg/kg/day oral, 15 days
  IR (%) inhibition rate of tumor growth (tumor weight): 93.25^*** %
HCC827 xenograft; HCC827 xenograft, 1 mg/kg/day oral
  Body weight (g) End: 17.21 ± 0.90 g
HCC827 cells [4]; HCC827, EGFR (Del E746_A750), MTT, 72 h, mean ± s.d. (n = 3)
  IC50: 1.72 ± 0.32 nM
Her4 Wild Type
  IC50: 0.18 nM
NCI-H1975 xenograft; 2.5 mg/kg/day group
  Body weight (g) Begin: 16.44 ± 0.69 g
NCI-H1975 xenograft; 2.5 mg/kg/day oral
  IR (%) inhibition rate of tumor growth (tumor weight): 98.18^*** %
  Body weight (g) End: 14.62 ± 0.67 g
Her2 Wild Type
  IC50: 0.07 nM
Calu-3 xenograft; 2.5 mg/kg/day group
  Body weight (g) Begin: 17.72 ± 0.73 g
Calu-3 xenograft; 2.5 mg/kg/day oral
  IR (%) inhibition rate of tumor growth (tumor weight): 77.16^*** %
  Body weight (g) End: 16.36 ± 0.92 g
A549 cells; A549, K-ras mutation (G12S), MTT, 72 h, mean ± s.d. (n = 3)
  IC50: > 1000 nM
Calu-3 cells; Calu-3, HER-2 (WT, amplified), MTT, 72 h, mean ± s.d. (n = 3)
  IC50: 2.47 ± 0.52 nM
NCI-H1975 cells [2]; NCI-H1975, EGFR (L858R/T790M), MTT, 72 h, mean ± s.d. (n = 3)
  IC50: 8.78 ± 3.03 nM
NCI-H1781 cells; NCI-H1781, HER-2 (G776V, Cins), MTT, 72 h, mean ± s.d. (n = 3)
  IC50: 6.17 ± 0.42 nM
